Test results reported in publication PMC10975611, “Heterocycles 52: The Drug-Likeness Analysis of Anti-Inflammatory Thiazolo[3,2-b][1,2,4]triazole and Imidazo[2,1-b][1,3,4]thiadiazole Derivatives” (Pharmaceuticals, 2024).

Assay: Lipophilicity by reversed-phase thin-layer chromatography (RP-TLC), isopropanol-water mobile phase
Type: physicochemical
Settings: for mRM (arithmetic mean of the experimental retention factors RM): RP-18F254s plates, isopropanol 70–90% in water; for RM0 (relative lipophilicity, RM extrapolated to pure water): Soczewinski Wachtmeister equation, isopropanol 70–90%; for lipophilicity (in words): chromatographic lipophilicity profile / lipophilicity descriptors; for PC1(RM): score of first principal component of RM values at isopropanol 70–90%; for b (slope): slope of RM versus isopropanol concentration; for φ0 (chromatographic hydrophobic index): φ0 = RM0/b
Protocol: Lipophilicity was assessed by RP-TLC, using RP-[…] standard silica gel plates (20 × 10 cm) as the stationary phase. An isopropanol:water binary mixture was used as the mobile phase, with different isopropanol concentrations 70%, 75%, 80%, 85%, 90% for thiazolo[3,2-b][1,2,4]triazole (1a–16a) and imidazo[2,1-b][1,3,4]thiadiazole (1b–16b) compounds.
The standard solutions (1 mg/mL) used to investigate the lipophilicity of the synthesized compounds were prepared in dichloromethane (1a–16a compounds) and dimethylsulfoxide (1b–16b compounds). From the obtained solutions, 2 µL was applied manually on the chromatographic plates, at 15 mm from the baseline and 5 mm from the edges of the plate at a spot distance of 12 mm. This procedure was repeated three times. The chromatographic plate upward elution was performed in a chromatographic chamber previously saturated for 30 min with mobile phase, at normal atmospheric pressure and room temperature. The migration distance of the eluent was 80 mm. The chromatographic plates were visually inspected under UV light at λ = 254 nm to identify the compounds. In order to minimize possible experimental errors, three measurements were performed for each mobile phase. The retention factors (Rf) were calculated as the average of three determinations in each case.
Based on the Rf values, a variety of parameters can be determined to estimate the lipophilicity of the compounds. The isocratic retention factor (RM) was determined using the Bate–Smith and Westall equation [34]:RM = log(1/Rf − 1) where Rf = x/y and x = the migration distance of the compound, and y = the migration distance of the solvent front.
There is usually a linear correlation between the RM values and the concentration of the organic component in the mobile phase. For a better estimation of lipophilicity, RM0 was determined as the extrapolated retention factor, considering pure water as the mobile phase (Soczewinski Wachtmeister equation):RM = RM0 + bC where b is the slope of the curve, which indicates the rate at which the solubility of the compound increases in the mobile phase, C is the concentration of the isopropanol in the mobile phase, and RM0 is the RM of the compound when the concentration of isopropanol is zero (extrapolated value).
To estimate the lipophilicity of the compounds, φ0, representing the chromatographic hydrophobicity index, was also determined. It corresponds to the percentage (by volume) of the organic component in the mobile phase and can be determined according to the following formula:φ0 = RM0/b
In order to assess the lipophilicity of compounds, other more relevant lipophilicity parameters have been used, such as the arithmetic mean of the experimental retention factors (mRM), and the score associated with the first principal component (PC1(RM)) obtained by applying principal component analysis (PCA) to the retention parameters RM [35, 36]. The determination of these parameters eliminates the errors that appear during the extrapolation procedure (when determining RM0) so that the results are more accurate.

Structure (SMILES)	mRM (arithmetic mean of the experimental retention factors RM)	RM0 (relative lipophilicity, RM extrapolated to pure water)	lipophilicity (in words)	PC1(RM)	b (slope)	φ0 (chromatographic hydrophobic index)
Brc1ccc(-c2csc3nc(-c4ccccc4)nn23)cc1 [Compound 2a]	0.200	2.130	high lipophilicity	−0.821	−0.024	88.37
Brc1ccc(-c2cn3nc(-c4ccccc4)sc3n2)cc1 [Compound 2b]	0.174	2.507	high lipophilicity	−0.730	−0.029	85.86
FC(F)(F)c1ccc(-c2csc3nc(-c4ccccc4)nn23)cc1 [Compound 3a]	0.065	2.229		−0.341	−0.027	82.54
FC(F)(F)c1ccc(-c2cn3nc(-c4ccccc4)sc3n2)cc1 [Compound 3b]	0.062	2.410		−0.331	−0.029	81.96
Clc1ccc(-c2nc3scc(-c4ccccc4)n3n2)cc1 [Compound 5a]	0.178	2.131		−0.743	−0.024	87.32
Clc1ccc(-c2nc3scc(-c4ccc(Br)cc4)n3n2)cc1 [Compound 6a]	0.324	2.582	the most lipophilic compounds	−1.267	−0.028	91.57
Clc1ccc(-c2nn3cc(-c4ccc(Br)cc4)nc3s2)cc1 [Compound 6b]	0.239	2.454	the most lipophilic compounds	−0.960	−0.028	87.94
FC(F)(F)c1ccc(-c2csc3nc(-c4ccc(Cl)cc4)nn23)cc1 [Compound 7a]	0.186	2.648		−0.775	−0.031	85.99
FC(F)(F)c1ccc(-c2cn3nc(-c4ccc(Cl)cc4)sc3n2)cc1 [Compound 7b]	0.086	2.468		−0.414	−0.030	82.28
COc1ccc(-c2csc3nc(-c4ccc(Cl)cc4)nn23)cc1 [Compound 8a]	0.166	2.126		−0.701	−0.025	86.79
COc1ccc(-c2cn3nc(-c4ccc(Cl)cc4)sc3n2)cc1 [Compound 8b]	0.148	2.183		−0.634	−0.026	84.92
COc1ccc(-c2nc3scc(-c4ccc(Br)cc4)n3n2)cc1 [Compound 10a]	0.168	2.132	high lipophilicity	−0.711	−0.025	87.00
COc1ccc(-c2nn3cc(-c4ccc(Br)cc4)nc3s2)cc1 [Compound 10b]	0.222	1.990	high lipophilicity	−0.899	−0.022	90.04
COc1ccc(-c2nc3scc(-c4ccc(C(F)(F)F)cc4)n3n2)cc1 [Compound 11a]	0.032	2.217		−0.226	−0.027	81.22
COc1ccc(-c2nn3cc(-c4ccc(C(F)(F)F)cc4)nc3s2)cc1 [Compound 11b]	0.110	1.973		−0.498	−0.023	84.69
NS(=O)(=O)c1ccc(-c2nc3scc(-c4ccc(Br)cc4)n3n2)cc1 [Compound 14a]	−0.435	1.309		1.448	−0.022	60.05
NS(=O)(=O)c1ccc(-c2nn3cc(-c4ccc(Br)cc4)nc3s2)cc1 [Compound 14b]	−0.416	1.399		1.382	−0.023	62.17
NS(=O)(=O)c1ccc(-c2nc3scc(-c4ccc(C(F)(F)F)cc4)n3n2)cc1 [Compound 15a]	−0.504	1.534		1.694	−0.026	60.16
NS(=O)(=O)c1ccc(-c2nn3cc(-c4ccc(C(F)(F)F)cc4)nc3s2)cc1 [Compound 15b]	−0.504	1.725		1.693	−0.028	62.28
